Laboratory results published in patent US20220305136A1, “ANTI-CTLA4 CONJUGATES” (Ascendis Pharma Oncology Division A/S, priority 2019, published 2022).

What was measured:
spleen immune cells = experiment: Flow cytometric profiling of spleen immune cells; type: in vivo, C57BL/6 mice with the human CTLA4 gene knocked in; details: day 7; doses as E70
Procedure: (§1) The study was conducted in female C57BL/6 mice with the human CTLA4 gene knocked into the endogenous CTLA4 locus with an age of 6-11 weeks at the day of tumor inoculation. This model is also known as a Human Genetically Engineered Mouse Model or HuGEMM. Mice were subcutaneously implanted with 1×10^6 MC38 tumor cells in the right flank. When tumors to be injected were grown to a mean tumor volume of ˜65 mm^3, mice were randomized into treatment cohorts (day 0) and treated with either: 1) a single 50 μL intratumoral injection of control hydrogel 30 or 2) four total 200 μL intraperitoneal doses of 18 μg given on days 0, 4, 8, and 12 of free CTLA-4 mAB, or 3) a single 50 μL intratumoral injection of 840 μg of CTLA-4 mAB-linker-hydrogel prodrug 29b or 3) a single 50 μL intratumoral injection of 72 μg of CTLA-4 mAB-linker-hydrogel prodrug 29c. Hydrogels were administered as suspensions in 20 mM succinate, 135 mM NaCl, 0.01% Tween20, pH 4.0 buffer.
(§2) Mice were sacrificed 7 days after randomization (D0). Following sacrifice, blood, spleen and tumor were isolated. Spleen samples were dissociated mechanically to generate single suspensions. Tumor samples were enzymatically and mechanically dissociated to generate single cell suspensions. Cell suspensions from spleen and tumor were centrifuged at 300 g for 5 minutes and 2×10^6 cells were used for staining. For whole blood, approximately 100 μL was used for staining. Cells were resuspended in FACS buffer with 1 μg/ml Fc-Block and incubated at 4° C. for 10 minutes in the dark. Surface marker antibody mixtures in FACS buffer were added to each sample and samples were incubated in the dark at 4° C. for 30 minutes. Red blood cell lysis buffer (Bio-gems) was added if needed and cells were further incubated at 4° C. for 10 minutes. Cells were washed twice with FACS buffer then fixed and permeabilized for 30 minutes at room temperature with Fix/Perm buffer (eBioscience). Cells were washed twice in Permeabilization Buffer and stained with intracellular antibodies in Permeabilization buffer for 30 minutes at room temperature. Cells were washed twice in FACS buffer and acquired in the presence of 123count Ebeads (eBioscience). After collection, FACS data was analyzed using FlowJo Version 10.6.1. Compensation was digitally adjusted using single antibody-stained beads, single antibody-stained cells, and fluorescence minus one (FMO) controls. CD4^+ T cells were gated as live, intact CD45+ CD3+ CD4+ events. Tregs were gated as the CD25+ FOXP3+ subset of CD4 T cells. CD8^+ T cells were gated as live, intact CD45+ CD3+ CD8+ events. Subgates were then defined using the controls mentioned above. The change in the mean percentage of positive cells for indicated populations relative to control treatment was calculated by the formula: mean percentage of positive cells in treated animals—mean percentage of positive cells in control treated animals.

blood immune cells = experiment: Flow cytometric profiling of blood immune cells; type: in vivo, C57BL/6 mice with the human CTLA4 gene knocked in; details: day 7; doses as E70
Procedure: as §1, §2

MC38 tumor cells [1] = experiment: In vivo anti-tumor efficacy, MC38 tumor bearing mice (Example 33); set-up: species or system C57BL/6 mice with the human CTLA4 gene knocked in
Procedure: as §1, with “[…] Following treatment initiation, anti-tumor efficacy was assessed by determination of tumor volumes at various time points from tumor size measurements with a caliper. Tumor volumes” for “Hydrogels”, “calculated according to the formula: Tumor volume=(L×W^2)×0.5 where L is the length of the tumor and W the width (both” for “administered as suspensions”, “mm). […] Percent tumor growth inhibition (TGI) was calculated according to the formula: [1−(Mean Tumor Volume in treated animals)/(Mean Tumor Volume in control animals)]*100.” for “20 mM succinate, 135 mM NaCl, 0.01% Tween20, pH 4.0 buffer.”

tumor immune cells = experiment: Flow cytometric profiling of tumor immune cells; type: in vivo, C57BL/6 mice with the human CTLA4 gene knocked in; details: day 7
Procedure: as §1
as §2, with “CD8^+ T cells were gated as live, intact CD45+ CD3+ CD8+ events. Subgates were then defined using the controls mentioned above.” left out

MC38 tumor cells [2] = experiment: In vivo anti-tumor efficacy, MC38 tumor bearing mice (Example 28); set-up: species or system C57BL/6 mice with the human CTLA-4 gene knocked in; details: CTLA-4 mAB 4 x 210 μg intraperitoneal days 0, 4, 8, 12, 29b single 840 μg intratumoral
Procedure: The study was conducted in female C57BL/6 mice with the human CTLA-4 gene knocked into the endogenous CTLA-4 locus with an age of 6-11 weeks at the day of tumor inoculation. This model is also known as a Human Genetically Engineered Mouse Model or HuGEMM. Mice were subcutaneously implanted with 1×10^6 MC38 tumor cells in the right flank. When tumors to be injected were grown to a mean tumor volume of ˜65 mm^3, mice were randomized into treatment cohorts (day 0) and treated with either: 1) a single 50 μL intratumoral injection of control hydrogel 30 or 2) a single 50 μL intratumoral injection of 840 μg of CTLA-4 mAB-linker-hydrogel prodrug 29b or 3) four total 200 μL intraperitoneal doses of 210 μg given on Days 0, 4, 8, and 12 of CTLA-4 mAB. Hydrogels were administered as suspensions in 20 mM succinate, 135 mM NaCl, 0.01% Tween-20, pH 4.0 buffer. Following treatment initiation, anti-tumor efficacy was assessed by determination of tumor volumes at various time points from tumor size measurements with a caliper. Tumor volumes were calculated according to the formula:
Tumor volume=(L×W^2)×0.5 where L is the length of the tumor and W the width (both in mm). Mice were removed from the study once tumors were greater than 3000 mm^3.

[3] = Plasma pharmacokinetics of CTLA-4 mAB in Wistar rats; type: in vivo; details: n=3
Procedure: This study was performed in order to investigate the plasma pharmacokinetics of CTLA-4 mAB in Wistar rats following subcutaneous administration of transient CTLA-4 mAB-linker-hydrogel prodrug 29b or following subcutaneous or intravenous administration of free CTLA-4 mAB. Animals (n=3 per group) received either a single SC injection of a 29b (1 mg/kg CTLA-4 mAB equivalents) in the neck region or a single SC injection in the neck region or IV injection in the tail vein of an CTLA-4 mAB formulation (1 mg/kg CTLA-4 mAB). At selected time points, 200 μL blood were collected in L^1-Heparin tubes and processed to plasma by centrifugation at 3,000 g for 10 minutes at 4° C.
CTLA-4 mAB concentrations in rat plasma were determined with a commercial ELISA setup obtained from BioVision Inc. (CA, USA, order number E4384-100). The manufacturer's instructions were followed with minor changes to the protocol. Specifically, the plasma samples were used undiluted (except for samples above the upper limit of quantification which were diluted with blank plasma prior to the measurement) and the sample incubation time was prolonged to 60 minutes.
Calibration standards of CTLA-4 mAB in blank plasma were prepared as follows: thawed L^1-Heparin Wistar rat plasma was homogenized. The free CTLA-4 mAB formulation was spiked into blank plasma at concentrations between 5,000 ng/mL and 50 ng/mL with additional higher and lower anchor points. These solutions were used for the generation of a calibration curve. Calibration curves were analyzed via a 4-parameter logarithmic fit and 1/Y^2 weighted. The determined CTLA-4 mAB plasma concentrations are depicted in Table 1.

CTLA-4 mAB: Monoclonal antibody CTLA-4 mAB (AMO-M6104, CAS No. 477202-00-9) obtained from AbMole Bioscience Inc.
Increase in Percentage Positive from control hydrogel 30: Spleen CD4 of T (spleen immune cells): 4.90% | Increase in Percentage Positive from control hydrogel 30: Spleen CD25+ of CD4 (spleen immune cells): 4.38% | Increase in Percentage Positive from control hydrogel 30: Spleen CD69+ of CD4 (spleen immune cells): 8.33% | Increase in Percentage Positive from control hydrogel 30: Spleen CD69+ of Treg (spleen immune cells): 9.17% | Increase in Percentage Positive from control hydrogel 30: Spleen ICOS+ of CD8s (spleen immune cells): 3.18% | Increase in Percentage Positive from control hydrogel 30: Spleen Ki67+ of CD4s (spleen immune cells): 11.75% | Increase in Percentage Positive from control hydrogel 30: Spleen Ki67+ of Tregs (spleen immune cells): 16.97% | Increase in Percentage Positive from control hydrogel 30: Spleen Treg of CD4 (spleen immune cells): 6.64% | Increase in Percentage Positive from control hydrogel 30: Blood CD4 of T (blood immune cells): 0.53% | Increase in Percentage Positive from control hydrogel 30: Blood CD25+ of CD4 (blood immune cells): 2.88% | Increase in Percentage Positive from control hydrogel 30: Blood CD44++ CD62L− of CD4s (blood immune cells): 15.28% | Increase in Percentage Positive from control hydrogel 30: Blood CD69+ of CD4 (blood immune cells): 3.35% | Increase in Percentage Positive from control hydrogel 30: Blood CD69+ of Treg (blood immune cells): 3.69% | Increase in Percentage Positive from control hydrogel 30: Blood ICOS+ of CD4s (blood immune cells): 18.80% | Increase in Percentage Positive from control hydrogel 30: Blood ICOS+ of CD8s (blood immune cells): 9.26% | Increase in Percentage Positive from control hydrogel 30: Blood Ki67+ of CD4s (blood immune cells): 14.64% | Increase in Percentage Positive from control hydrogel 30: Blood Treg of CD4 (blood immune cells): 2.22% | Percent Tumor Growth Inhibition (MC38 tumor cells [1]; day 20, vs control hydrogel 30, doses as E66): 97.3% | Mean Tumor Volume (mm3) (MC38 tumor cells [1]; day 20, CTLA-4 mAB 4 x 18 μg intraperitoneal days 0, 4, 8, 12, 29b single 840 μg intratumoral, 29c single 72 μg intratumoral): 57.1 mm3 | Increase in Percentage Positive from control hydrogel 30: Tumor CD44++ CD62L− of CD4s (tumor immune cells; CTLA-4 mAB 18 μg doses IP, 29b 840 μg IT, 29c 72 μg IT): 10.73% | Increase in Percentage Positive from control hydrogel 30: Tumor CD44++ CD62L− of CD8s (tumor immune cells; doses as E70): 6.51% | Increase in Percentage Positive from control hydrogel 30: Tumor CD69+ of CD4s (tumor immune cells; doses as E70): 2.37% | Increase in Percentage Positive from control hydrogel 30: Tumor ICOS+ of CD4s (tumor immune cells; doses as E70): 13.77% | Mean Tumor Volume (mm3) Day 20 (MC38 tumor cells [2]): 60.5 mm3 | mean CTLA-4 mAB plasma concentration ([3]; 1 h, 1 mg/kg CTLA-4 mAB (equivalents), subcutaneous, LLOQ 50 ng/mL): 170 ng/mL | mean CTLA-4 mAB plasma concentration ([3]; 1 h, 1 mg/kg intravenous): 18000 ng/mL | mean CTLA-4 mAB plasma concentration ([3]; 4 h, 1 mg/kg CTLA-4 mAB (equivalents), subcutaneous, LLOQ 50 ng/mL): 600 ng/mL | mean CTLA-4 mAB plasma concentration ([3]; 4 h, 1 mg/kg intravenous): 14000 ng/mL | mean CTLA-4 mAB plasma concentration ([3]; 24 h, 1 mg/kg CTLA-4 mAB (equivalents), subcutaneous): 3700 ng/mL | mean CTLA-4 mAB plasma concentration ([3]; 24 h, 1 mg/kg intravenous): 9600 ng/mL | mean CTLA-4 mAB plasma concentration ([3]; 32 h, 1 mg/kg CTLA-4 mAB (equivalents), subcutaneous): 4800 ng/mL | mean CTLA-4 mAB plasma concentration ([3]; 32 h, 1 mg/kg intravenous): 7500 ng/mL | mean CTLA-4 mAB plasma concentration ([3]; 48 h, 1 mg/kg CTLA-4 mAB (equivalents), subcutaneous): 6200 ng/mL | mean CTLA-4 mAB plasma concentration ([3]; 48 h, 1 mg/kg intravenous): 6000 ng/mL | mean CTLA-4 mAB plasma concentration ([3]; 72 h, 1 mg/kg CTLA-4 mAB (equivalents), subcutaneous): 6900 ng/mL | mean CTLA-4 mAB plasma concentration ([3]; 72 h, 1 mg/kg intravenous): 4900 ng/mL | mean CTLA-4 mAB plasma concentration ([3]; 96 h, 1 mg/kg CTLA-4 mAB (equivalents), subcutaneous): 6100 ng/mL | mean CTLA-4 mAB plasma concentration ([3]; 96 h, 1 mg/kg intravenous): 4000 ng/mL | mean CTLA-4 mAB plasma concentration ([3]; 168 h, 1 mg/kg CTLA-4 mAB (equivalents), subcutaneous): 5700 ng/mL | mean CTLA-4 mAB plasma concentration ([3]; 168 h, 1 mg/kg intravenous): 3100 ng/mL
